Each structure is given as a SMILES string. Where only a bound is given, the exact number is not on record here.

One test concerns the target T1, Adenosine receptor A1 (Rattus norvegicus, UniProt P25099).
T1 sequence (P25099 whole entry): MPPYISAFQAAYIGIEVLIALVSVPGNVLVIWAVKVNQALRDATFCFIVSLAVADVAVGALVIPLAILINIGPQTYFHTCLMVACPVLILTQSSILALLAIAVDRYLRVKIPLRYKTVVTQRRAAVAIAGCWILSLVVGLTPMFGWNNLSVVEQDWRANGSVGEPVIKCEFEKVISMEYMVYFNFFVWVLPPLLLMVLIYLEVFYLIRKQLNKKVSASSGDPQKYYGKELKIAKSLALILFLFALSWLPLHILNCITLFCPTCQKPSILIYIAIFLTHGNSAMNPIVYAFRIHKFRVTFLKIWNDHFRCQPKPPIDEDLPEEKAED
In words: Displacement of [3H]DPCPX from adenosine A1 receptor in rat brain cortex membrane. In kind it is cell membranes. Background: Displacement assays read how much labelled ligand stays bound in the presence of the test substance.
Turning to `O=c1cc(-c2ccc(O)c(O)c2)oc2cc(O)cc(O)c12` [LUTEOLIN], the affinity, expressed as Ki, was 1.66 µM.
For the compound `CC(=O)Cc1cc(O)cc2oc(CO)cc(=O)c12`, the Ki (in general, the dissociation constant of the complex between target and ligand, obtained from inhibition or displacement) was over 50 µM.
As for `CC(=O)[C@@H]1c2cc(O)cc(O)c2C(=O)C[C@]1(C)O` (relative stereo), the inhibitory constant (Ki) is over 50 µM.
With `CC(=O)Cc1cc(O)cc2oc(C)cc(=O)c12`, the inhibition constant (Ki) is over 50 µM.
The same measure, in the same setting: then `CC(=O)[C@@H]1c2cc(O)cc(O)c2C(=O)C[C@@]1(C)O` (relative stereo), with over 50 µM.

The next test has as its target T1, Adenosine receptor A1. In words: Displacement of [3H]DPCPX from adenosine A1 receptor in rat brain cortex membrane in presence of 0.5 mM GTP. In kind it is cell membranes.
As to `O=c1cc(-c2ccc(O)c(O)c2)oc2cc(O)cc(O)c12` [LUTEOLIN], the Ki amounted to 1.55 µM.

These data come from ChEMBL document CHEMBL1155686, “Luteolin, a compound with adenosine A(1) receptor-binding activity, and chromone and dihydronaphthalenone constituents from Senna siamea” (J Nat Prod, 2000).
